Results as given in patent US9618524B2, “Method, composition, isolation and identification of a plaque particle and related biomarker” (Plaxgen Inc., priority 2012, dated 2017).

What was measured:
Test in all cases: Mass spectroscopy proteomics, semi-quantitative binding affinity of serum proteins (plaqueproteome, Table 2)
Settings in all cases: higher number = stronger affinity
[1] = biological target: T1, Abeta-42 plaque particles (Homo sapiens, UniProt P05067)
T1 construct: Abeta 1-42
Procedure, shortened: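 AD patient serum or plasma (50% in PBS) was incubated with Abeta-42 aggregates (30 μg) for 1 h at 37 °C, then stained with Thioflavin S for 30 min. Labeled particles were FACS-sorted, trypsin/Lys-C digested overnight and analyzed by MS/MS. Sequest searched human UniProt; Scaffold/Protein Prophet validated the identifications.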

[2] = test system: High Density cholesterol (Chl Large) plaque particles; design: species or system human
Procedure, shortened: (§1)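 Serum or plasma from atherosclerotic subjects, as 50% serum, was incubated with 30 μg cholesterol aggregates for 1 h at 37 °C. High- and low-density particles were then flow-sorted, trypsin-digested and analysed by MS/MS. Proteins were identified by Sequest search against human UniProt and validated with Protein Prophet.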

[3] = test system: Low density cholesterol (Chl small) plaque particles; design: species or system human
Procedure, shortened: as §1

Tau plaque particles = test system: Tau plaque particles; design: species or system human
Procedure, shortened: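 Serum or plasma proteins captured on Thioflavin S-labelled Tau plaque particles (Tau-74, Tau-275 oligomers preformed in PBS at 37° C for 2 h; 1 h co-incubation at 37° C) were isolated by FACS sorting, then tryptically digested and identified by MS/MS (Sequest, human UniProt, strict trypsin).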

[4] = biological target: T2, alpha-synuclein plaque particles (Homo sapiens, UniProt P37840)
T2 construct: 140 amino acids polypeptide
Procedure, shortened: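 AD-subject plasma or serum (800 μL of 50%) mixed with 30 μg preformed alpha-synuclein aggregates for 1 h at 37 °C; Thioflavin S-positive particles isolated by flow sorting. After reduction, acrylamide alkylation and overnight tryptic digestion, serum proteins identified by MS/MS with Sequest and Scaffold.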

Substance | Semi-quantitative analysis of proteins binding to different plaque particles: Abeta-42 [1] | Semi-quantitative analysis of proteins binding to different plaque particles: Chl Large [2] | Semi-quantitative analysis of proteins binding to different plaque particles: Chl small [3] | Semi-quantitative analysis of proteins binding to different plaque particles: Tau (Tau plaque particles) | Semi-quantitative analysis of proteins binding to different plaque particles: Synuclein [4]
Ig kappa chain V-I region Mev | 0 | 1 | 1 | 0 | 0
Alpha-1B-glycoprotein | 4 | 7 | 7 | 6 | 11
Ig heavy chain V-III region TUR | 4 | 2 | 3 | 0 | 1
Isoform 2 of Fibrinogen alpha chain | 0 | 0 | 1 | 1 | 0
Cathepsin D | 5 | 0 | 0 | 0 | 0
Isoform 3 of Fibronectin | 9 | 25 | 19 | 23 | 16
Histone H1.2 | 2 | 0 | 0 | 0 | 0
Ig kappa chain V-I region CAR | 5 | 1 | 1 | 1 | 1
Ig lambda-7 chain C region | 2 | 3 | 2 | 3 | 4
Plasma kallikrein | 0 | 1 | 3 | 3 | 0
Immunoglobulin lambda-like polypeptide 5 | 9 | 5 | 7 | 11 | 8
Plasma protease C1 inhibitor | 4 | 7 | 7 | 3 | 9
Ig kappa chain C region | 11 | 17 | 21 | 15 | 15
Vitronectin | 4 | 4 | 2 | 4 | 4
Cluster of Nucleolar RNA helicase 2 | 2 | 0 | 0 | 0 | 0
Apolipoprotein D | 0 | 2 | 2 | 3 | 1
Complement C1q subcomponent subunit C | 0 | 1 | 1 | 2 | 1
Complement C4-A | 28 | 44 | 36 | 50 | 37
Nucleoside diphosphate kinase A | 5 | 0 | 0 | 0 | 4
Ig kappa chain V-III region NG9 | 0 | 2 | 1 | 3 | 2
Lysozyme C | 4 | 0 | 0 | 0 | 0
Ig kappa chain V-I region DE | 5 | 5 | 1 | 2 | 3
Hemoglobin subunit alpha | 2 | 4 | 5 | 5 | 5
Haptoglobin | 23 | 27 | 29 | 24 | 22
Ig kappa chain V-I region Ni | 5 | 2 | 2 | 3 | 2
Cluster of Desmoplakin | 12 | 0 | 0 | 0 | 0
POTE ankyrin domain family member E | 18 | 0 | 0 | 0 | 18
